Assay results: patent US20130245355A1, “3-HETARYL-SUBSTITUTED PYRROLO[2,3 B]PYRIDINE DERIVATIVES AS PDK1 INHIBITORS” (MERCK PATENT GMBH, priority 2010, published 2013)

Key:
[1] = target: T1, PDK1 (Homo sapiens, UniProt O15530); experiment: Test for the inhibition of PDK1 (flashplate, 33P-ATP); settings: His6-PDK1 (1-50) 3.4 nM, 4 μM ATP, 30° C., 60 min; read-out: IC50 [PDK1] biochemical
T1 construct: His6 (N)
T1 sequence (O15530 51-556 limits assumed): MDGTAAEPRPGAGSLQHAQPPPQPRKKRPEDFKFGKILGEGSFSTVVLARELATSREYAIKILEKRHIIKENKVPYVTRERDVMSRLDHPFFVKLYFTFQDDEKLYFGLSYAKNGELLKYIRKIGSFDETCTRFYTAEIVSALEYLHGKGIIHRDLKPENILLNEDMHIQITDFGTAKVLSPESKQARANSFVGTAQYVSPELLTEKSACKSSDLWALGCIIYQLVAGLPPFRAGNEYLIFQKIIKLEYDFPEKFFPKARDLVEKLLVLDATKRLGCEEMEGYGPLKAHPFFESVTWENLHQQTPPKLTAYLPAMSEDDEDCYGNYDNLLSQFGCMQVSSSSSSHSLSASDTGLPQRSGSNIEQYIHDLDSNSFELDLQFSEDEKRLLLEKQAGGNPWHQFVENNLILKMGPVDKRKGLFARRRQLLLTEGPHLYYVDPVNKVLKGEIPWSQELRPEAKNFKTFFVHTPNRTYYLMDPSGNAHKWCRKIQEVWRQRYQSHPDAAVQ
Method: The experimental batches are carried out in a flashplate system with 384 wells/microtitration plate.
In each case, the PDK1 sample His6-PDK1 (1-50) (3.4 nM), the PDK1 substrate biotin-bA-bA-[…] (400 nM), 4 μM ATP (with 0.2μ Ci of ^33P-ATP/well) and the test substance in 50 μl of conventional experimental solution per well are incubated at 30° C. for 60 min. The test substances are employed in corresponding concentrations (if desired in a dilution series). The control is carried out without test substance. The reaction is stopped using standard methods and washed. The activity of the kinase is measured via the incorporated radioactivity in top count. In order to determine the non-specific kinase reaction (blank value), the experimental batches are carried out in the presence of 100 nM staurosporin.
The radioactivity (decompositions per minute) of the blank value (no use of test substance in the presence of staurosporin) is subtracted from all other radioactivity values. The controls (kinase activity without test substance) are set equal to 100 percent and all other radioactivity values (after subtracting the blank value) are expressed set in relation thereto (for example in % of the control).
IC50 values (50% inhibition) are determined with the aid of statistics programmes, such as, for example, RS1.

[2] = target: T2, PDK1 (Homo sapiens, UniProt O15530); experiment: Cellular testing of PDK1 kinase inhibitors in PC3 cells (Luminex, phospho-T308-PKB); assay type: cell-based; settings: 30 min, serum-free
T2 construct: endogenous in cells; host or cells: PC3 cells
T2 sequence (O15530 1-556): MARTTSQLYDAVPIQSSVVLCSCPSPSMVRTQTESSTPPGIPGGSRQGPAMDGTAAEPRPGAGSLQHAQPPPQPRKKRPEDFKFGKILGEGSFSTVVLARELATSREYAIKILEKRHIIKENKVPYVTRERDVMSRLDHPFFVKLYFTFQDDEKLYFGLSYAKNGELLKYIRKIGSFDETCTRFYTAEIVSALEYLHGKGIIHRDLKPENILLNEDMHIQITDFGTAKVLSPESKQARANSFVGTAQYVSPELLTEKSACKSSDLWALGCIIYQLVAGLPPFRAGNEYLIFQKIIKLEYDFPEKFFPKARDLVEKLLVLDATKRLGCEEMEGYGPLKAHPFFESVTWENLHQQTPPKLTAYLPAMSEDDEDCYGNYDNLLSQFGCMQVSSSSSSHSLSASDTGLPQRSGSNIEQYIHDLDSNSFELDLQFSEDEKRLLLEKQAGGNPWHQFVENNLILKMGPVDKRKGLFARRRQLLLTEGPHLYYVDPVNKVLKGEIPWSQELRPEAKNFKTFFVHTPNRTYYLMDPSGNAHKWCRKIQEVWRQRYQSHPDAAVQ
Method: Method for the Cellular Testing of PDK1 Kinase Inhibitors in PC3 Cells.
The cellular assay for the determination of the PDK1 kinase activity is carried out as a Luminex assay in the 96-well format. PC3 cells are sown at 20,000 cells per well in 100 μl of medium (45% of […]/45% of Ham's F12/10% of FCS) and incubated on the following day for 30 min with a serial dilution of the test substance (7 concentrations) under serum-free conditions. The cells are subsequently lysed using 90 μl of lysis buffer (20 mM tris/HCl pH 8.0, 150 mM NaCl, 1% of NP40, 10% of glycerol, 1% of phosphatase inhibitor I, 1% of phosphatase inhibitor II, 0.1% of protease inhibitor cocktail III, 0.01% of benzonase) per well, and the lysates are separated off from insoluble cell constituents by means of centrifugation through a 96-well filter plate (0.65 μm). The lysates are incubated overnight at 4° C. with shaking with Luminex beads to which an anti-total PKB antibody is coupled. The detection is carried out on the following day by addition of a phospho-T308-PKB antibody and a species-specific […] secondary antibody. The detection of phospho T308-PKB is carried out by measurement in a Luminex100 instrument by determination of 100 events per cavity in a measurement time of 60 sec. As pharmacological blank, the signals obtained from cells which have been treated with 10 μM staurosporin are subtracted from all other batches. The control value used for maximum phosphorylation of PKB on T308 are the signals from cells which have only been treated with the solvent (0.3% of DMSO). The values of the batches treated with test substance are calculated therefrom as percentage of control, and IC50 values are determined by means of RS 1.

SMILES	IC50 [1] [nM]	IC50 [2] [nM]
Cn1cc(-c2cnc3[nH]cc(-c4csc(Cc5ccccc5F)n4)c3c2)cn1 [A4]	1000 to 10000	1000 to 10000
Cn1cc(-c2cnc3[nH]cc(-c4cc(C(C)(O)c5ccccc5F)on4)c3c2)cn1 (centres unmarked) [A6]	0.5 to 1000	0.5 to 1000
Cn1cc(-c2cnc3[nH]cc(-c4csc(Cc5cccc(F)c5F)n4)c3c2)cn1 [A9]	1000 to 10000	1000 to 10000
CCC(O)(c1cccc(F)c1)c1cc(-c2c[nH]c3ncc(-c4cnn(C)c4)cc23)no1 (centres unmarked) [A11]	0.5 to 1000	0.5 to 1000
CC(O)(c1cc(-c2c[nH]c3ncc(-c4cnn(CC(=O)N5CCCCC5)c4)cc23)no1)c1ccccc1F (centres unmarked) [A12]	0.5 to 1000	0.5 to 1000
Cn1cc(-c2cnc3[nH]cc(-c4n[nH]c(Cc5cccc(F)c5)n4)c3c2)cn1 [A14, 3-[5-(3-fluorobenzyl)-1H-1,2,4-triazol-3-yl]-5-(1-methyl-1H-pyrazol-4-yl)-1H-pyrrolo[2,3-b]pyridine]	0.5 to 1000	1000 to 10000
Cn1cc(-c2cnc3[nH]cc(-c4n[nH]c(Cc5ccccc5F)n4)c3c2)cn1 [A15]	0.5 to 1000	1000 to 10000
Cn1cc(-c2cnc3[nH]cc(-c4n[nH]c(Cc5cccc(F)c5F)n4)c3c2)cn1 [A16]	0.5 to 1000	0.5 to 1000
Cn1cc(-c2cnc3[nH]cc(-c4n[nH]c(Cc5ccccc5)n4)c3c2)cn1 [A17]	0.5 to 1000	1000 to 10000
Cn1cc(-c2cnc3[nH]cc(-c4cc(C(C)(O)c5ccccc5F)[nH]n4)c3c2)cn1 (centres unmarked) [A18]	0.5 to 1000	1000 to 10000
Cn1cc(-c2cnc3[nH]cc(-c4nnc(Cc5cccc(F)c5)o4)c3c2)cn1 [A19, 3-[5-(3-fluorobenzyl)-1,3,4-oxadiazol-2-yl]-5-(1-methyl-1H-pyrazol-4-yl)-1H-pyrrolo[2,3-b]pyridine]	0.5 to 1000	1000 to 10000
Cn1cc(-c2cnc3[nH]cc(-c4nnc(Cc5cccc(F)c5F)o4)c3c2)cn1 [A20]	0.5 to 1000	1000 to 10000
Cn1cc(-c2cnc3[nH]cc(-c4nnc(Cc5ccccc5)o4)c3c2)cn1 [A21]	0.5 to 1000	1000 to 10000
Cn1cc(-c2cnc3[nH]cc(-c4nnc(Cc5ccccc5F)o4)c3c2)cn1 [A22]	0.5 to 1000	0.5 to 1000
Cn1cc(-c2cnc3[nH]cc(-c4noc(C(O)c5ccccc5)n4)c3c2)cn1 (centres unmarked) [A23]	0.5 to 1000	1000 to 10000
CC(O)(c1cc(-c2c[nH]c3ncc(-c4cnn(CCO)c4)cc23)no1)c1ccccc1F (centres unmarked) [A24]	0.5 to 1000	0.5 to 1000
CCC(O)(c1cc(-c2c[nH]c3ncc(-c4cnn(C)c4)cc23)no1)c1ccccc1F (centres unmarked) [A25]	0.5 to 1000	0.5 to 1000
C=C(c1cc(-c2c[nH]c3ncc(-c4cnn(C)c4)cc23)n[nH]1)c1ccccc1F [A28]	0.5 to 1000	1000 to 10000

Continued, values first:

IC50 [1] [nM]	IC50 [2] [nM]	SMILES
0.5 to 1000	1000 to 10000	Cn1cc(-c2cnc3[nH]cc(-c4nnc(C(O)c5ccccc5)o4)c3c2)cn1 (centres unmarked) [A29]
0.5 to 1000	0.5 to 1000	Cn1cc(-c2cnc3[nH]cc(-c4noc(C(C)(O)c5ccccc5)n4)c3c2)cn1 (centres unmarked) [A31]
0.5 to 1000	0.5 to 1000	Cn1cc(-c2cnc3[nH]cc(-c4cc(C(C)(O)c5cccc(F)c5)on4)c3c2)cn1 (centres unmarked) [A36]
0.5 to 1000	0.5 to 1000	Cn1cc(-c2cnc3[nH]cc(-c4cc(C(C)(O)c5cccc(F)c5)[nH]n4)c3c2)cn1 (centres unmarked) [A37, 1-(3-fluorophenyl)-1-{5-[5-(1-methyl-1H-pyrazol-4-yl)-1H-pyrrolo[2,3-b]pyridin-3-yl]-2H-pyrazol-3-yl}ethanol]
1000 to 10000	1000 to 10000	Cn1cc(-c2cnc3[nH]cc(-c4n[nH]c(C(=O)c5ccccc5)n4)c3c2)cn1 [A39]
0.5 to 1000	1000 to 10000	Cn1cc(-c2cnc3[nH]cc(-c4n[nH]c(C(C)(O)c5ccccc5)n4)c3c2)cn1 (centres unmarked) [A42, 1-{5-[5-(1-methyl-1H-pyrazol-4-yl)-1H-pyrrolo[2,3-b]pyridin-3-yl]-2H-1,2,4-triazol-3-yl}-1-phenylethanol]
0.5 to 1000	1000 to 10000	Cn1cc(-c2cnc3[nH]cc(-c4nnc(C(O)c5ccccc5F)o4)c3c2)cn1 (centres unmarked) [A43]
0.5 to 1000	1000 to 10000	Cn1cc(-c2cnc3[nH]cc(-c4n[nH]c(C(C)(O)c5cccc(F)c5)n4)c3c2)cn1 (centres unmarked) [A44]
0.5 to 1000	1000 to 10000	Cn1cc(-c2cnc3[nH]cc(-c4nnc(C(C)(O)c5ccccc5)o4)c3c2)cn1 (centres unmarked) [A45]
0.5 to 1000	0.5 to 1000	Cn1cc(-c2cnc3[nH]cc(-c4nnc(C(O)c5cccc(F)c5F)o4)c3c2)cn1 (centres unmarked) [A46]
0.5 to 1000	0.5 to 1000	Cn1cc(-c2cnc3[nH]cc(-c4nnc(C(O)c5cccc(F)c5)o4)c3c2)cn1 (centres unmarked) [A47]
0.5 to 1000	0.5 to 1000	Cn1cc(-c2cnc3[nH]cc(-c4nnc(C(C)(O)c5ccccc5F)o4)c3c2)cn1 (centres unmarked) [A48]
0.5 to 1000	1000 to 10000	Cn1cc(-c2cnc3[nH]cc(-c4n[nH]c(C(C)(O)c5ccccc5F)n4)c3c2)cn1 (centres unmarked) [A49]
0.5 to 1000	1000 to 10000	Cn1cc(-c2cnc3[nH]cc(-c4noc(C(C)(O)c5ccccc5F)n4)c3c2)cn1 (centres unmarked) [A50]
0.5 to 1000	1000 to 10000	Cn1cc(-c2cnc3[nH]cc(-c4noc(C(C)(O)c5cccc(F)c5)n4)c3c2)cn1 (centres unmarked) [A51]
0.5 to 1000	1000 to 10000	Cn1cc(-c2cnc3[nH]cc(-c4noc(C(C)(O)c5cccc(F)c5F)n4)c3c2)cn1 (centres unmarked) [A52]
0.5 to 1000	1000 to 10000	Cn1cc(-c2cnc3[nH]cc(-c4n[nH]c(C(C)(O)c5cccc(F)c5F)n4)c3c2)cn1 (centres unmarked) [A54]
0.5 to 1000	1000 to 10000	Cn1cc(-c2cnc3[nH]cc(-c4nnc(C(O)c5ccc(F)cc5)o4)c3c2)cn1 (centres unmarked) [A57, (4-fluorophenyl)-{5-[5-(1-methyl-1H-pyrazol-4-yl)-1H-pyrrolo[2,3-b]pyridin-3-yl]-1,3,4-oxadiazol-2-yl}methanol]
0.5 to 1000	0.5 to 1000	Cn1cc(-c2cnc3[nH]cc(-c4nnc(C(O)c5cccc(Cl)c5)o4)c3c2)cn1 (centres unmarked) [A59]
1000 to 10000	1000 to 10000	Cn1cc(-c2cnc3[nH]cc(-c4nnc(C(O)c5ccc(Cl)cc5)o4)c3c2)cn1 (centres unmarked) [A60]
0.5 to 1000	0.5 to 1000	Cn1cc(-c2cnc3[nH]cc(-c4cc(C(C)(O)c5cccc(F)c5F)on4)c3c2)cn1 (centres unmarked) [A61]
0.5 to 1000	0.5 to 1000	Cn1cc(-c2cnc3[nH]cc(-c4cc(C(C)(O)c5cccc(F)c5F)[nH]n4)c3c2)cn1 (centres unmarked) [A64]
